{"source": "patent US8871794B2", "about": "“Small-molecule agonists for type-2 orexin receptor” (Board of Regents, The University of Texas System, priority 2008, dated 2014)", "key": {"[1]": {"tested_on": "wild type C57BL/6J mice", "experiment": "Emergence from isoflurane anesthesia (return of righting reflex)", "format": "in vivo, mouse", "protocol": "Loss and Return of Righting Reflex. Induction and emergence from isoflurane or sevoflurane were defined behaviorally as the respective loss and return of the righting reflex and were evaluated as follows. Wild-type C57BL/6J male mice aged 8-14 weeks (Jackson Laboratories). were placed in cylindrical gas-tight, controlled-environment chambers arrayed in parallel (35). After 90 min of habituation with 100% oxygen each day on two successive days, anesthesia was induced with a Drager model 19.1 isoflurane or sevoflurane vaporizer by using 8-12 stepwise incremental increases in the concentration of anesthetic gas dissolved in 100% oxygen. Anesthetic gas concentrations were determined in triplicate during the last 2 min at each step (35). Initial volatile anesthetic concentrations were 0.44% isoflurane or 0.96% sevoflurane. After 15 min at each concentration to allow for equilibration of the mouse with the anesthetic vapors, the concentration of volatile anesthetic was increased by 6±3% of the preceding value. […]\nPharmacologic Inhibition of Orexin Signaling and Righting Reflex Studies. To determine the effect of the orexin-1R antagonist, SB-334867-A (Tocris Bioscience), on induction of anesthesia, 24 C57BL/6J mice were evaluated for both the concentration at which the righting reflex was lost as well as a separate experiment to measure the latency to loss of righting. […]"}, "[2]": {"tested_on": "wild-type mice", "experiment": "Diet-induced obesity in mice", "format": "in vivo, mouse", "excerpt": "To examine whether enhanced OX2R signaling causes resistance to diet-induced obesity, an OX2R selective agonist, [Ala11, D-Leu15] Orexin-B (Akanmu and Honma, 2005 Brain. Res. 1048. 138-145.; Asahi et al., 2003 Bioorg. Med. Chem. Lett. 13.\n111-113) was continuously infused in the lateral ventricles of wild-type mice for 14 days. […] There was no effect of the OX2R selective agonist for OX2R-deficient mice on a high fat diet (n=4, weight gain 3.33±0.61 g), verifying the selectivity of the agonist in vivo."}, "[3]": {"tested_on": "orexin/ataxin-3-transgenic mice", "experiment": "Cataplexy testing in orexin/ataxin-3-transgenic mice", "format": "in vivo", "details": "3 nmol per mouse i.c.v., first 3 h after injection, vs vehicle", "excerpt": "(§1) Aspects of this example, including more detailed descriptions of the production of the CAG/orexin-transgenic mice, the cataplexy testing, cannulation (i.c.v.) and orexin administration and EEG/EMG recordings were published in Mieda et al., PNAS USA Mar. 30, 2004; 101(13):4649-54.\n(§2) We administered orexin-A, a nonselective agonist for orexin receptor type 1 (OX1R) and OX2R.\nWe examined whether i.c.v. orexin-A administration suppresses cataplectic arrests in orexin/ataxin-3-transgenic mice. By using a randomized crossover design, we administered vehicle and orexin-A to all mice during separate experimental sessions. […] Thus, i.c.v. administration of orexin-A is sufficient to acutely suppress behavioral arrests in this model of narcolepsy."}, "[4]": {"tested_on": "orexin/ataxin-3 mice and wild-type controls", "experiment": "EEG/EMG sleep/wake recording in orexin/ataxin-3 and wild-type mice", "format": "in vivo, mouse", "excerpt": "as §1, §2\nTo quantify the effects of orexin-A administration on sleep/wake status, we recorded EEG/EMG in orexin/ataxin-3 mice, as well as wild-type controls. […] Nevertheless, some pharmacological effects of exogenous orexins have been reported to vary with time of day (Zeitgeber-dependent effects). We therefore examined the effects of orexin-A administrations in mice both at the onset of the dark (active) phase as well as during the light (resting) phase, again by using a randomized crossover design."}, "[5]": {"details": "0.5 nmol/d infused in lateral ventricles, 14 days, wild-type mice"}, "[6]": {"details": "3 nmol i.c.v., regardless of genotype and time of administration"}}, "note": "Where no end group is shown, it is not given here."}
{"compound": "Cc1nc2ccc(NC(=O)Nc3ccnc4cccnc34)cc2o1.Cl", "note": "[SB-334867-A]", "values": [{"measurement": "emergence from isoflurane anesthesia, dose dependence", "setting": "[1]; 5 mg/kg or 20 mg/kg i.p., 1.25% isoflurane", "value": "dose-dependent delay in emergence"}, {"measurement": "emergence from isoflurane anesthesia", "setting": "[1]; 20 mg/kg i.p. (F2,45=8.80, P<0.001)", "value": "significantly delayed emergence"}]}
{"compound": "[Ala11, D-Leu15] Orexin-B", "values": [{"measurement": "weight gain on a high fat diet", "setting": "[2]; [5]", "value": "suppressed weight gain"}, {"measurement": "weight homeostasis on a low fat diet", "setting": "[2]; [5]", "value": "without altering weight homeostasis"}, {"measurement": "fat mass gain vs vehicle on a high fat diet", "setting": "[2]; 14 days, wild-type mice, high fat diet", "value": "gained significantly less fat mass"}, {"measurement": "fat mass gain on a low fat diet", "setting": "[2]; 14 days, wild-type mice, low fat diet", "value": "no effect was observed"}, {"measurement": "effect for OX2R-deficient mice on a high fat diet", "setting": "[2]; OX2R-deficient mice, high fat diet", "value": "no effect"}, {"measurement": "weight gain", "setting": "[2]; OX2R-deficient mice, high fat diet, n=4", "value": "3.33 ± 0.61", "unit": "g"}, {"measurement": "change in LEPR, POMC, SOCS3, STAT3 transcripts", "setting": "[2]; after 14 days", "value": "no significant change"}, {"measurement": "hypothalamic mRNA expression of orexigenic factors NPY and AGRP", "setting": "[2]; after 14 days, high fat diet compared to low fat diet", "value": "reduced hypothalamic mRNA expression"}, {"measurement": "food intake", "setting": "[2]; high fat vs low fat diet", "value": "reduced food intake only on a high fat but not on low fat diet"}]}
{"compound": "orexin-A: a nonselective agonist for orexin receptor type 1 (OX1R) and OX2R (QPLPDCCRQKTCSCRLYELLHGAGNHAAGILTL; ends and bridges not checked; cysteine pairing not given here; UniProt O43612 34-66, looked up)", "values": [{"measurement": "frequency of cataplectic arrests", "setting": "[3]", "value": "significantly reduced"}, {"measurement": "overall time spent in cataplexy", "setting": "[3]", "value": "significantly reduced"}, {"measurement": "non-REM sleep in narcoleptic animals compared with wild-type", "setting": "[4]; 3 nmol i.c.v., 3-h period", "value": "significantly greater suppressions of non-REM sleep"}, {"measurement": "wakefulness in orexin/ataxin-3-transgenic mice compared with wild-type mice", "setting": "[4]; 3 nmol i.c.v., 3-h period", "value": "significantly greater amounts of wakefulness"}, {"measurement": "elevation of REM sleep in narcoleptic mice", "setting": "[4]; 3 nmol i.c.v., dark phase", "value": "effectively suppressed this elevation of REM sleep"}, {"measurement": "non-REM and REM sleep", "setting": "[4]; [6]", "value": "suppressed both non-REM and REM sleep"}, {"measurement": "wakefulness", "setting": "[4]; [6]", "value": "strikingly increased wakefulness"}, {"measurement": "REM sleep suppression, narcoleptic mice vs wild-type controls", "setting": "[4]; 3 nmol i.c.v., regardless of the time of administration", "value": "more effective at suppressing REM sleep in narcoleptic mice than in wild-type controls"}, {"measurement": "effects in knockout mice lacking both OX1R and OX2R genes", "setting": "[4]; 3 nmol per mouse i.c.v.", "value": "no detectable effects"}, {"measurement": "cumulative wakefulness and cumulative sleep in narcoleptic animals", "setting": "[4]; 24 h after a nocturnal administration", "value": "statistically significant increase of cumulative wakefulness and a decrease of cumulative sleep"}, {"measurement": "immediate rebounds of sleep", "setting": "[4]; after dark-phase or light-phase administration", "value": "no immediate rebounds of sleep were observed"}]}
